Calls of active or inactive are those of the source. How the calls were made is not given here.
Each compound was assayed against Perilipin-5 (Homo sapiens) + 1-acylglycerol-3-phosphate O-acyltransferase ABHD5 (Homo sapiens) (UniProt Q00G26+Q8WTS1) (assay: blockers of ABHD5 binding to perilipin-5 – cell lysate, luminescence, proteins expressed in HEK293T, dose response (AID 651733;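 further: split Gaussia princeps luciferase complementation between ABHD5 and MLDP fusion proteins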)). Details: ABHD5-PLIN5 interaction.
Perilipin-5 (Homo sapiens) + 1-acylglycerol-3-phosphate O-acyltransferase ABHD5 (Homo sapiens), sequence (Q00G26 whole entry, looked up, the tested form may be a part): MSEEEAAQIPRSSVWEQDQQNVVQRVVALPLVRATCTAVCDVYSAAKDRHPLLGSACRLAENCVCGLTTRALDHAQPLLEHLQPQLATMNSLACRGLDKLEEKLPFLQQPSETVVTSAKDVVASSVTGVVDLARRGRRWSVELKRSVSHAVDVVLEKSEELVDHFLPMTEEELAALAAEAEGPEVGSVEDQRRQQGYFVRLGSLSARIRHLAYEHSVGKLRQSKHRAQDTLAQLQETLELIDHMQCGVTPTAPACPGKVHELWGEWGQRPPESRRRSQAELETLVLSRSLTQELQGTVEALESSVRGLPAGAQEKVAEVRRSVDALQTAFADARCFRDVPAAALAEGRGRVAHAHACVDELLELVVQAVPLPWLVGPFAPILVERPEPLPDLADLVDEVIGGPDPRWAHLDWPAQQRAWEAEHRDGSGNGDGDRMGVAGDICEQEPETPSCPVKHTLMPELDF
Perilipin-5 (Homo sapiens) + 1-acylglycerol-3-phosphate O-acyltransferase ABHD5 (Homo sapiens), sequence (Q8WTS1 whole entry, looked up, the tested form may be a part): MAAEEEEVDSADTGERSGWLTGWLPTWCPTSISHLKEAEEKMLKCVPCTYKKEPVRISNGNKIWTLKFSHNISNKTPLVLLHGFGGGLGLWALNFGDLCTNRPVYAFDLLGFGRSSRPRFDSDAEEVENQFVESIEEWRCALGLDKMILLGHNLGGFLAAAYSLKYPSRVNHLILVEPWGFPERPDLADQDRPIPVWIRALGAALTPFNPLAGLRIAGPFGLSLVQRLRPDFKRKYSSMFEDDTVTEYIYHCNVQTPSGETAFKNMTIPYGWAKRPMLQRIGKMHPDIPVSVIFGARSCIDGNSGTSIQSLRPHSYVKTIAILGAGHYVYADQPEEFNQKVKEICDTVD

| SMILES | IC50 |
| --- | --- |
| Cc1ccc(SC2=C(Sc3ccc(C)cc3)C(=O)c3ccccc3C2=O)cc1 | inactive |
| CC1CN(Cc2c(O)ccc3c2oc(=O)c2ccccc23)CC(C)O1 (configuration not stated) | 4.77 µM |
| COc1ccc(/C=C\C(=O)CC(O)(c2ccccc2)C(F)(F)F)cc1 (configuration not stated) | 1.97 µM |
| CC(CCc1ccco1)NC(=O)CCc1nnc2ccc(NCc3ccccc3Cl)nn12 (configuration not stated) | 3.73 µM |
| CC(C)(C)NC(=O)C(c1cc2ccccc2o1)n1c(=O)c(-c2ccco2)nc2ccccc21 (configuration not stated) | 3.94 µM |
| CSc1nnc(NC(=O)c2nc(S(=O)(=O)Cc3ccc(C)cc3)ncc2Cl)s1 | 3.88 µM |
| CCOC(=O)c1c(NC(=O)/C=C/C(=O)O)sc(C)c1-c1ccc(C(C)(C)C)cc1 | 5.99 µM |
| O=C(NCc1ccccc1)C(c1ccccc1F)n1c(=O)c(-c2ccco2)nc2ccccc21 (configuration not stated) | 4.43 µM |
| CCOC1=CC2=C(C(=O)C(Cl)=CC2=O)[C@@H]2CN(S(=O)(=O)c3ccc(C)cc3)[C@@H](c3ccccc3)[C@H]12 | 2.25 µM |
| CC(O)CC(=O)OC[C@]12CC[C@H]3[C@@](C)(CC[C@H]4C(C)(C)CCC[C@]34C)[C@@H]1CC(C1=CC(=O)OC1O)O2 (some centres not stated) | 1.37 µM |
| C=CC(=O)N1c2ccccc2Sc2ccc(NC(=O)OCC)cc21 | 4.84 µM |
| O=C(/C=C/c1ccccc1)CC(O)(c1ccccc1)C(F)(F)C(F)F (configuration not stated) | 1.1 µM |
| Cc1cccc(C)c1NC(=O)C(c1cccc2ccccc12)n1c(=O)c(-c2ccco2)nc2ccccc21 (configuration not stated) | 4.15 µM |
| CC(=O)Cc1cc(O)c2ccccc2c1OC(=O)c1ccccc1 | 5.35 µM |
| CS(=O)(=O)c1ccc(C(=O)NCCN2C(=O)S/C(=C\c3cccnc3)C2=O)cc1[N+](=O)[O-] | 4.62 µM |
| O=C(NC1CCCCC1)C(c1ccc(-c2ccccc2)cc1)n1c(=O)c(-c2ccco2)nc2ccccc21 (configuration not stated) | 4.1 µM |

| SMILES | IC50 |
| --- | --- |
| COc1cc(/C=C/C(=O)c2ccc(Cl)s2)cc(OC)c1O | 6.42 µM |
| COc1ccc(NC(=O)C(c2cccc3ccccc23)n2c(=O)c(-c3ccco3)nc3ccccc32)cc1 (configuration not stated) | inactive |
| O=C1NC(=O)N(Cc2ccc(F)cc2)C(=O)/C1=C\C=C\c1ccco1 | 2.29 µM |
| CC(C)(C)NC(=O)C(c1cccc2ccccc12)n1c(=O)c(-c2ccco2)nc2ccccc21 (configuration not stated) | 4.38 µM |
| COc1ccc(C(C(=O)NC2CCCCC2)n2c(=O)c(-c3ccco3)nc3ccccc32)cc1 (configuration not stated) | 3.87 µM |
| O=C(/C=C/Sc1ccccc1)c1ccc(Cl)cc1 | 4 µM |
| Cc1ccc(NC(=O)CSc2nnc(-c3ccco3)c(-c3ccco3)n2)cc1 | 4.82 µM |
| COc1ccccc1/C=C/C(=O)c1ccccc1 | 9.15 µM |
| CCCNC(=O)Nc1ccc2c(c1)N(C)C(=O)c1ccccc1S2 | 4.21 µM |
| O=C1NC(=O)N(c2ccccc2F)C(=O)/C1=C/c1ccc(Oc2ccc([N+](=O)[O-])cn2)cc1 | 7.53 µM |
| Cc1cccc(NC(=O)CSc2nnc(-c3ccco3)c(-c3ccco3)n2)c1 | 4.25 µM |
| COc1ccc(C(C(=O)NC(C)(C)C)n2c(=O)c(-c3ccco3)nc3ccccc32)cc1 (configuration not stated) | 3.52 µM |
| Cc1nc(-c2ccccc2)sc1C(=O)/C=C/c1ccccc1 | 2.35 µM |
| CN(C)CCOc1ccc(/C(=C(/CCCl)c2ccccc2)c2ccccc2)cc1 | 1.2 µM |
| COc1ccc(NC(=O)C(c2ccnc3ccccc23)n2c(=O)c(-c3ccco3)nc3ccccc32)cc1 (configuration not stated) | 7.88 µM |
| CN1C(=O)/C(=C/C=C/c2ccco2)C(=O)NC1=S | inactive |

— PubChem BioAssay AID651733 (The Scripps Research Institute Molecular Screening Center, 2012)
